Source: patent US20240050370A1, “TRIPLE STABILIZER SYSTEM” (Bayer Aktiengesellschaft, priority 2022, published 2024)

Test: Viscosity by rotational viscometry (MCR 302e, concentric cylinder)
Format: physicochemical
Conditions: 2 wt % HPC, 0.2 wt % anionic surfactant, PVPK12 0 to 16 wt %
Description: Viscosity was measured with rotational viscometry with a modular compact rheometer (MCR) 302e (Anton Paar). A concentric cylinder geometry was used. Shear rate was varied logarithmic from 0.1 1/s to 1000 1/s. 6 measurement points per decade were used. The measurement time was varied from 10 s for a shear rate of 0.1 1/s and is for 1000 1/s. Shear rate vs. Shear stress was plotted. The slope described the viscosity. The shear rate independent viscosity was evaluated, and the middle value was used.
Viscosity was measured with rotational viscometry with a modular compact rheometer (MCR) 302e (Anton Paar). A concentric cylinder geometry was used. Shear rate was varied logarithmic from 0.1 1/s to 1000 1/s. 6 measurement points per decade were used. The measurement time was varied form 10 s for a shear rate of 0.1 1/s and is for 1000 1/s.

| Impact of anionic surfactant on viscosity reduction induced by PVPK12 addition (FIG. 5) | Structure (SMILES) |
| --- | --- |
| do not show a reduction of viscosity | C[C@H](CCC(=O)[O-])[C@H]1CC[C@H]2[C@@H]3CC[C@@H]4C[C@H](O)CC[C@]4(C)[C@H]3C[C@H](O)[C@]12C.[Na+] [Na-Deoxycholate] |
| strongest impact | CCCCCCCCCCCCOS(=O)(=O)[O-].[Na+] [SDS, sodium dodecyl sulfate] |
